Measured values reported in patent publication US4985450A, “Arylthiadiazolylsulfonamides and derivatives” (priority 1989, dated 1991).

Key:
[1] = test system: intraocular pressure in alpha-chymotrypsin-induced ocular hypertensive rabbit eyes; assay: Alpha-chymotrypsin-induced ocular hypertension, maximum intraocular pressure drop; assay type: in vivo, New Zealand White rabbits
Description: This is done by the direct injection of the proteolytic enzyme, alpha-chymotrypsin into the posterior chamber of the rabbit eye.
Ocular hypertension is elicited in New Zealand White rabbits (2.0-2.5 kg) by the injection of alpha-chymotrypsin into the posterior chamber as described by Sears and Sears (Am. J. Ophthalmol. 77, 378-383, (1974). Briefly, the animals are pretreated with indomethacin (10 mg/kg i.p.) to prevent the otherwise immediate onset of inflammation. One hour later, the rabbits are anesthetized with a 2 ml intramuscular injection of a 50:50 mixture of xylazine (20 mg/kg) and ketamine (100 mg/kg). The eyes are individually proptosed and treated topically with 50 microliters of 0.5% proparacaine. The anterior chamber is cannulated with a 30-gauge needle attached to a reservoir set at a pressure of 25 mmHg. Then, 0.5 ml of alpha-chymotrypsin (350 units) is injected through the pupil near the limbus and into the posterior chamber using an S-curved, 30-gauge needle. During the injection, the tip of the needle is swept across the posterior chamber to distribute the enzyme. Care is taken to avoid injection of any enzyme into the corneal stroma. Both needles can then be carefully removed to prevent any significant loss of aqueous humor.
The eyes are examined biweekly for corneal lacerations and overt inflammatory responses. […] The intraocular pressures of the operated rabbits are checked approximately four weeks posttreatment. […]. Generally, about 50% of the operated eyes are suitable for study. Intraocular pressure is measured with a standard instrument and the results are expressed in terms of maximum (over measurment time) percentage drop of intraocular pressure.

carbonic anhydrase B = carbonic anhydrase B (Homo sapiens, UniProt P00915); assay: Carbonic anhydrase esterase inhibition (spectrophotometric rate of hydrolysis of 1 mM p-nitrophenyl acetate); assay type: biochemical; settings: read-out: Carbonic Anhydase Esterase Inhibition IC50
Description: It is generally known that carbonic anhydrase inhibitors are useful for the treatment of glaucoma. The carbonic anhydrase inhibitory activities have been evaluated by spectrophotometrically measuring the rate of hydrolysis of 1 mM p-nitrophenyl acetate catalyzed by carbonic anhydrase B according to the procedure described in J. Armstrong et al., J. Biol. Chem., Vol 241, No. 21, pp 5137-5149 (1966).

carbonic anhydrase B, sequence (P00915 2-261 limits assumed): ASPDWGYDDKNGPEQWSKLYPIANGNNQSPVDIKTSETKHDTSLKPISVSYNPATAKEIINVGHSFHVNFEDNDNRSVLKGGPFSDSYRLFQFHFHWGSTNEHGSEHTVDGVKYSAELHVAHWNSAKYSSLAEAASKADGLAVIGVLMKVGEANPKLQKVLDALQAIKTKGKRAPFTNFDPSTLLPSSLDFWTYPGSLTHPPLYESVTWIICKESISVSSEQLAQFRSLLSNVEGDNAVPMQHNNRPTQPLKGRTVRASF

| Structure (SMILES) | Maximum Intraocular Pressure Drop ([1]; at 0.3%) [%] | IC50 (carbonic anhydrase B) [µM] | Maximum Intraocular Pressure Drop ([1]; at 3%) [%] | Maximum Intraocular Pressure Drop ([1]; at 0.5%) [%] | Maximum Intraocular Pressure Drop ([1]; at 1.0%) [%] |
| --- | --- | --- | --- | --- | --- |
| NS(=O)(=O)c1nc(-c2ccccc2Cl)ns1 [3-(2-Chlorophenyl)-1,2,4-thiadiazole-5-sulfonamide] | 24.8 | 0.27 |  |  |  |
| COC(=NS(=O)(=O)c1nc(-c2ccccc2Cl)ns1)C(C)C [N-(1-Methoxy-2-methylpropylidene)-3-(2-chlorophenyl)-1,2,4-thiadiazole-5-sulfonamide] | 13 | 0.4 | 26 |  |  |
| CC(C)(C)NC[C@H](O)COc1nsnc1N1CCOCC1 [Timolol, reference compound] |  |  |  | 27.5 | 28.0 |
